Reference: paper PMC6366404, “4-(3-Nitrophenyl)thiazol-2-ylhydrazone derivatives as antioxidants and selective hMAO-B inhibitors: synthesis, biological activity and computational analysis” (Journal of Enzyme Inhibition and Medicinal Chemistry, 2019)

Experiments:
[1] = Phosphomolybdenum assay (PhosphoMo), total antioxidant activity; details: concentration at which absorbance was 0.5
Procedure: The total antioxidant activity of the compounds was evaluated by phosphomolybdenum method according to Zengin et al.[35]. The sample solution (0.3 ml) was combined with 3 ml of reagent solution (0.6 M sulphuric acid, 28 mM sodium phosphate, and 4 mM ammonium molybdate) and the absorbance was recorded at 695 nm after 90 min incubation at 95 °C. The EC50, which is the effective concentration at which the absorbance was 0.5, was calculated for each compound and trolox, as a reference drug.

[2] = DPPH radical scavenging activity
Procedure: The radical scavenging effect of the compounds using the 1,1-diphenyl-2-picrylhydrazyl (DPPH) radical was estimated according to Zengin et al.[36]. The sample solution (1 ml) was added to 4 ml of a 0.004% solution of DPPH in methanol. The sample absorbance was recorded at 517 nm after 30 min incubation at room temperature in the dark.
(§1) The scavenging activity of the compounds on the ABTS radical cation [ABTS,2,2′-azino-bis(3-ethylbenzothiazoline)-6-sulphonic acid] was measured according to the method of Zengin et al.[37] with slight modification. Briefly, ABTS^+ was produced directly by reacting a 7 mM ABTS solution with 2.45 mM potassium persulphate and allowing the mixture to incubate for 12–16 h in the dark at room temperature. Prior to initiating the assay, the ABTS solution was diluted with methanol to an absorbance of 0.700 ± 0.02 at 734 nm. The sample solution (1 ml) was added to the ABTS^+ solution (2 ml) and mixed, and the sample absorbance was recorded at 734 nm after 30 min incubation at room temperature. The corresponding IC50 value, which is the effective concentration at which 50% of DPPH/ABTS radicals are scavenged, was calculated for each compound and trolox, as a reference drug.

[3] = ABTS radical cation scavenging activity
Procedure: as §1

[4] = Cupric ion reducing activity (CUPRAC)
Procedure: The cupric ion reducing activity (CUPRAC) was determined according to the method of Zengin et al.[38]. The sample solution (0.5 ml) was added to a premixed reaction mixture containing CuCl2 (1 ml, 10 mM), neocuproine (1 ml, 7.5 mM), and NH4Ac buffer (1 ml, 1 M, pH 7.0). Similarly, a blank was prepared by adding the sample solution (0.5 ml) to a premixed reaction mixture (3 ml) without CuCl2. The absorbances of the sample and blank were subsequently recorded at 450 nm after 30 min incubation at room temperature. The absorbance of the blank was subtracted from that of the sample.
(§2) The FRAP (ferric reducing antioxidant power) assay was carried out as described by Zengin et al.[38]. The sample solution (0.1 ml) was added to the premixed FRAP reagent (2 ml) containing acetate buffer (0.3 M, pH 3.6), 2,4,6-tris(2-pyridyl)-s-triazine (10 mM) in 40 mM HCl, and ferric chloride (20 mM) in a ratio of 10/1/1 (v/v/v). The absorbance of the sample was subsequently recorded at 593 nm after 30 min incubation at room temperature. Both results were expressed as EC50 values, using trolox as a reference drug.

[5] = FRAP (ferric reducing antioxidant power) assay
Procedure: as §2

[6] = Metal chelating activity on ferrous ions; details: ferrozine
Procedure: Metal chelating activity on ferrous ions was evaluated by the method previously described. Briefly, the sample solution (2 ml) was added to FeCl2 solution (0.05 ml, 2 mM). The reaction was initiated by the addition of 5 mM ferrozine (0.2 ml). Similarly, a blank was prepared by adding the sample solution (2 ml) to FeCl2 solution (0.05 ml, 2 mM) and water (0.2 ml) without ferrozine. Then, the sample and blank absorbance were recorded at 562 nm after incubation for 10 min at room temperature. The absorbance of the blank was subtracted from that of the sample. EDTA was used as a positive control and this property was expressed as IC50 value for each compound.

| SMILES | melting point [°C] | EC50 [1] [µM] | IC50 [2] [µM] | IC50 [3] [µM] | EC50 [4] [µM] | EC50 [5] [µM] | IC50 [6] [µM] |
| --- | --- | --- | --- | --- | --- | --- | --- |
| CCC(=NNc1nc(-c2cccc([N+](=O)[O-])c2)cs1)c1ccccc1 | 215 to 217 |  |  |  |  |  |  |
| CC(=NNc1nc(-c2cccc([N+](=O)[O-])c2)cs1)c1cccc([N+](=O)[O-])c1 | 214 to 216 |  |  |  |  |  |  |
| CC(=NNc1nc(-c2cccc([N+](=O)[O-])c2)cs1)c1ccc([N+](=O)[O-])cc1 | 258 to 260 |  |  |  |  |  |  |
| O=[N+]([O-])c1cccc(-c2csc(NN=Cc3c[nH]c4ccccc34)n2)c1 | 253 to 255 |  |  |  |  |  |  |
| CC(=NNc1nc(-c2cccc([N+](=O)[O-])c2)cs1)c1c[nH]c2ccccc12 | 209 to 211 |  |  |  |  |  |  |
| O=[N+]([O-])c1cccc(-c2csc(NN=Cc3ccc4c(c3)OCO4)n2)c1 | 255 to 256 |  |  |  |  |  |  |
| CC(=NNc1nc(-c2cccc([N+](=O)[O-])c2)cs1)c1cc2ccccc2o1 | 228 to 230 |  |  |  |  |  |  |
| CC(=NNc1nc(-c2cccc([N+](=O)[O-])c2)cs1)c1ccc2c(c1)OCCO2 | 242 to 244 |  |  |  |  |  |  |
| CC(=NNc1nc(-c2cccc([N+](=O)[O-])c2)cs1)c1ccc2ccccc2c1 | 152 to 154 |  |  |  |  |  |  |
| O=[N+]([O-])c1cccc(-c2csc(NN=C(c3ccccc3)c3ccccc3)n2)c1 | 166 to 168 |  |  |  |  |  |  |
| CC(=NNc1nc(-c2cccc([N+](=O)[O-])c2)cs1)c1cc2ccccc2oc1=O | 183 to 185 |  |  |  |  |  |  |
| CC(=NNc1nc(-c2cccc([N+](=O)[O-])c2)cs1)c1ccc(C(C)=NNc2nc(-c3cccc([N+](=O)[O-])c3)cs2)cc1 | 283 to 285 |  |  |  |  |  |  |
| O=[N+]([O-])c1cccc(C=NNc2nc(-c3cccc([N+](=O)[O-])c3)cs2)c1 | 222 to 224 |  |  |  |  |  |  |
| CC(=NNc1nc(-c2cccc([N+](=O)[O-])c2)cs1)c1ccc(Cl)s1 [Compound 6, 1-(1-(5-Chlorothiophen-2-yl)ethylidene)-2-(4-(3-nitrophenyl)thiazol-2-yl)hydrazine] | 227 to 229 | 1250 ± 50 | 1180 ± 10 | 1080 ± 10 | 490 ± 10 | 620 ± 70 | > 5000 |
| O=[N+]([O-])c1cccc(-c2csc(NN=Cc3ccccc3)n2)c1 [Compound 7, 1-Benzylidene-2-(4-(3-nitrophenyl)thiazol-2-yl)hydrazine] | 193 to 195 | 1290 ± 160 | 1380 ± 10 | 1040 ± 10 | 660 ± 10 | 660 ± 40 | > 5000 |
| O=[N+]([O-])c1cccc(-c2csc(NN=Cc3ccccc3[N+](=O)[O-])n2)c1 [Compound 8, 1-(2-Nitrobenzylidene)-2-(4-(3-nitrophenyl)thiazol-2-yl)hydrazine] | 228 to 230 | 1700 ± 50 | 1470 ± 10 | 1040 ± 10 | 440 ± 20 | 470 ± 40 | > 5000 |
| O=[N+]([O-])c1cccc(-c2csc(NN=Cc3ccccn3)n2)c1 [Compound 16, 1-(4-(3-Nitrophenyl)thiazol-2-yl)-2-(pyridin-2-ylmethylene)hydrazine] |  | 1130 ± 10 | 1320 ± 10 | 1060 ± 20 | 530 ± 20 | 510 ± 20 | > 5000 |
| O=[N+]([O-])c1cccc(-c2csc(NN=Cc3ccncc3)n2)c1 [Compound 18, 1-(4-(3-Nitrophenyl)thiazol-2-yl)-2-(pyridin-4-ylmethylene)hydrazine] |  | 4700 ± 970 | 1370 ± 10 | 1040 ± 10 | 580 ± 10 | 350 ± 10 | > 5000 |
| CC(=NNc1nc(-c2cccc([N+](=O)[O-])c2)cs1)c1ccccn1 [Compound 19, 1-(4-(3-Nitrophenyl)thiazol-2-yl)-2-(1-(pyridin-2-yl)ethylidene)hydrazine] |  | 2640 ± 340 | 1360 ± 10 | 1040 ± 10 | 510 ± 10 | 380 ± 20 | > 5000 |
| CC(=NNc1nc(-c2cccc([N+](=O)[O-])c2)cs1)c1cccnc1 [Compound 20, 1-(4-(3-Nitrophenyl)thiazol-2-yl)-2-(1-(pyridin-3-yl)ethylidene)hydrazine] |  | 1770 ± 70 | 1290 ± 10 | 1040 ± 10 | 420 ± 20 | 320 ± 20 | > 5000 |
| CC(=NNc1nc(-c2cccc([N+](=O)[O-])c2)cs1)c1ccncc1 [Compound 21, 1-(4-(3-Nitrophenyl)thiazol-2-yl)-2-(1-(pyridin-4-yl)ethylidene)hydrazine] |  | 4480 ± 180 | 1340 ± 20 | 1040 ± 10 | 460 ± 20 | 270 ± 10 | > 5000 |
| CC(=NNc1nc(-c2cccc([N+](=O)[O-])c2)cs1)c1cnccn1 [Compound 22, 1-(4-(3-Nitrophenyl)thiazol-2-yl)-2-(1-(pyrazin-2-yl)ethylidene)hydrazine] | 243 to 245 | 1280 ± 30 | 1340 ± 10 | 1040 ± 10 | 910 ± 20 | 480 ± 40 | 3860 ± 290 |
| O=[N+]([O-])c1cccc(-c2csc(NN=Cc3cccc4ccccc34)n2)c1 [Compound 28, 1-(Naphthalen-1-ylmethylene)-2-(4-(3-nitrophenyl)thiazol-2-yl)hydrazine] | 212 to 214 | 4930 ± 830 | 1300 ± 10 | 1050 ± 10 | 510 ± 30 | 410 ± 10 | > 5000 |
| CC(=NNc1nc(-c2cccc([N+](=O)[O-])c2)cs1)c1cccc2ccccc12 [Compound 29, 1-(1-(Naphthalen-1-yl)ethylidene)-2-(4-(3-nitrophenyl)thiazol-2-yl)hydrazine] | 226 to 228 | 9390 ± 310 | 1420 ± 10 | 1040 ± 10 | 460 ± 10 | 530 ± 20 | > 5000 |
| O=C(O)CN(CCN(CC(=O)O)CC(=O)O)CC(=O)O [EDTA, reference compound] |  |  |  |  |  |  | 20 ± 1 |
| Cc1c(C)c2c(c(C)c1O)CCC(C)(C(=O)O)O2 (stereo not shown) [Trolox, trolox, reference compound] |  | 1130 ± 50 | 400 ± 10 | 660 ± 20 | 240 ± 20 | 160 ± 10 |  |
